Patent US10808008B2, “Aromatic-cationic peptides and uses of same” (Cornell University, priority 2012, dated 2020)
Where no end group is shown, it is not given here. [ ]: non-standard residue; d: D form.

Columns and labels:
[1] = Fluorescence spectroscopy of labelled peptides with cardiolipin; type: binding; settings: 1 μM peptide; CL 5 to 50 μg/ml
Text: The peptides 2′,6′-Dmt-D-Arg-[…] (SS-19) and 2′,6′-Dmt-D-Arg-Phe-Lys-Ald-NH2 (SS-37) cationic peptides carry net positive charge at neutral pH. They are expected to associate with anionic phospholipid cardiolipin based on electrostatic interaction. The interaction of small peptides with lipid membranes can been studied using fluorescence spectroscopy (Surewicz and Epand, 1984). […] Polarity-sensitive fluorescent probes were incorporated into the peptides and fluorescence spectroscopy was used to determine if SS-19, SS-37 and SS-36 interact with CL.
The peptide 2′,6′-Dmt-D-Arg-Phe-(atn)Dap-NH2 (SS-19) contains anthraniloyl incorporated into diaminopropionic acid. Anthraniloyl derivatives fluoresce in the 410-420 nm range when excited at 320-330 nm (Hiratsuka T, 1983). The quantum yield of anthraniloyl derivatives is strongly dependent on the local environment, and can increase 5-fold going from water to 80% ethanol, together with a blue shift in the emission maxima (λ max) of <10 nm (Hiratsuka T, 1983). Fluorescence emission spectrum of SS-19 (1 μM) alone, and in the presence of increasing concentrations of CL (5 to 50 μg/ml), was monitored following excitation at 320 nm using Hitachi F-4500 fluorescence spectrophotometer.
The peptide 2′,6′-Dmt-D-Arg-Phe-Lys-Ald-NH2 (SS-37) contains an additional amino acid, aladan (Ald), which has been reported to be particularly sensitive to the polarity of its environment and it has been used to probe the electrostatic character of proteins (Cohen et al., 2002). When excited at 350 nm, λmax shifts from 542 nm in water to 409 nm in heptane, accompanied by a significant increase in quantal yield (Cohen et al., 2001). Fluorescence emission spectrum of SS-37 (1 μM) alone, and in the presence of increasing concentrations of CL, was monitored following excitation at 350 nm. Addition of CL (5 to 50 μg/ml) led to a 3-fold increase in quantal yield of SS-37 as well as a clear blue shift in λ max, from 525 nm without CL to 500 nm with 50 μg/ml CL (FIG. 11B).
The peptide 2′,6′-Dmt-D-Arg-Ald-Lys-NH2 (SS-36) contains Ald in place Phe^3 in SS-02. Fluorescence emission spectrum of SS-36 (1 μM) alone, and in the presence of increasing concentrations of CL, was monitored following excitation at 350 nm. SS-36 was the most sensitive to the addition of CL, with dramatic increase in quantal yield and blue shift observed with much lower added amounts of CL (1.25 to 5 μg/ml). The λmax shifted from 525 nm without CL to 500 nm with as little as 1.25 μg/ml CL, and quantal yield increased by more than 100-fold with the addition of 5 μg/ml of CL (FIG. 11C). […] Accordingly, aromatic-cationic peptides of the present disclosure are useful for the prevention or treatment of diseases or disorders characterized by dysregulation of cardiolipin.
Changes in the emission intensity of the [atn]SS-02 and the [ald]SS-02 were measured using a Hitachi F-4500 fluorescence spectrophotometer. The different solvents used to dissolve the various phospholipids (chloroform, methanol and ethanol) had negligible effect on the fluorescence spectrum of [atn]SS-02 and [ald]SS-02. All experiments were done in low ionic solution (deionized water) to optimize electrostatic interactions of peptides with phospholipids.
Increasing concentrations of cardiolipin (5, 10, 25, and 50 μg/mL) were added to 1 μM [atn]SS-02, and the emission intensity between 350 nm and 500 nm was measured.

[2] = target: T1, cytochrome c and cardiolipin (CL) (Equus caballus, UniProt P00004); experiment: Fluorescence quenching by cytochrome c in the presence of cardiolipin; type: binding, horse; settings: CL 50 μg/ml
T1 construct: from tissue; host or cells: horse heart
T1 sequence (P00004 2-105 limits assumed): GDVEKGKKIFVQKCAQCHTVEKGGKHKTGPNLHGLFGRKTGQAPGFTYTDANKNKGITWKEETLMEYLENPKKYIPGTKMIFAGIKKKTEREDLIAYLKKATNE
Method: Fluorescence emission of SS-19 (10 μM) was monitored in real time (Ex/Em=320 nm/420 nm) using Hitachi F-4500 fluorescence spectrophotometer. […] CL may potentiate the interaction between SS-19 and cytochrome c by serving as an anionic platform for the two cationic molecules.
The quenching by cytochrome c was not displaced by sequential additions of bovine serum albumin (500 μg/ml) (FIG. 13C, A+arrows).
SS-36 also contains the polarity-sensitive fluorescent amino acid aladan. […] Accordingly, aromatic-cationic peptides of the present disclosure are useful for the prevention or treatment of diseases or disorders characterized by dysregulation of cardiolipin and/or cytochrome c, and/or diseases or disorders characterized by dysregulation of the cardiolipin/cytochrome c interaction.
Interaction of SS peptides with horse heart cytochrome c in the absence or presence of free cardiolipin or cardiolipin/POPC (1:1) liposomes (prepared as described in Example 22) was examined by fluorescence quenching of [atn]SS-02 (λex/λem=320/420 nm) and [ald]SS-02 (λex/λem=360/510 nm) upon addition of cytochrome c (using a Hitachi F-4500 fluorescence spectrophotometer). The solvents used to dissolve cardiolipin and POPC had negligible effect on cytochrome c-dependent quenching of these peptides. All experiments were done in low ionic solution (deionized water) or 20 mM Hepes pH 7.4.

[3] = target: cytochrome c/cardiolipin complex (Equus caballus, UniProt P00004); experiment: Soret circular dichroism of cytochrome c with cardiolipin; type: biochemical; settings: 10 μM cytochrome c, 30 μg/ml CL, 10 μM peptide; 20 mM HEPES pH 7.5, 25° C.
Sequence of cytochrome c/cardiolipin complex (P00004 2-105 limits assumed, one chain of several): as the sequence (P00004 2-105 limits assumed) above
Method: Circular dichroism (CD) was carried out to examine the effects of the peptides on protecting the heme environment of cytochrome c from the acyl chain of CL. For heme proteins, the Soret CD spectrum is strictly correlated with the heme pocket conformation. In particular, the negative 416-420 nm Cotton effect is considered diagnostic of Fe(III)-Met80 coordination in native cytochrome c (Santucci and Ascoli, 1997). […] CD spectra were obtained using AVIV CD Spectrometer Model 410.
Changes in the Soret CD spectrum of cytochrome c (10 μM) were recorded in the absence (dotted line) and presence (dashed line) of 30 μg/ml CL, plus addition of different peptides (10 μM) (solid line) (FIG. 14). CD measurements were carried out using 20 mM HEPES, pH 7.5, at 25° C. and expressed as molar ellipticity (A) (m Deg). […] Accordingly, aromatic-cationic peptides of the present disclosure are useful for the prevention or treatment of diseases or disorders characterized by dysregulation of cardiolipin and/or cytochrome c, and/or diseases or disorders characterized by dysregulation of the cardiolipin/cytochrome c interaction. In addition, aromatic-cationic peptides of the present disclosure are useful to protect the heme environment of cytochrome c from the acyl chain of cardiolipin.
Circular Dichroism (CD) spectra were collected with an AVIA 62 DS spectrophotometer equipped with a sample temperature controller. CD spectra of the Soret region (370-450 nm) were recorded with 10-mm path length cells containing 20 mM Hepes, pH 7.4, and 10 μM cytochrome c, in the presence or absence of 30 μg/ml cardiolipin and different SS peptide analogs (SS-02, [atn]SS-02, [ald]SS-02, and SS-31). The maximum lipid concentration was kept low to avoid spectral distortions due to excessive light scattering. All measurements were done at 25° C. All spectra were corrected for background, and the final spectrum shown represents the average of at least three experiments.

[4] = target: cardiolipin-cytochrome c complex (Equus caballus, UniProt P00004); experiment: Cytochrome c reduction in the presence of cardiolipin; type: biochemical; settings: 500 μM GSH
Sequence of cardiolipin-cytochrome c complex (P00004 2-105 limits assumed, one chain of several): as the sequence (P00004 2-105 limits assumed) above
Method: Reduction of cytochrome c (20 μM) was induced by the addition of glutathione (500 μM) in the absence or presence of CL (100 μg/ml) (FIG. 15A). Reduction of cytochrome c was monitored by absorbance at 550 nm using a 96-well UV-VIS plate reader (Molecular Devices). Addition of CL decreased the rate of cytochrome c reduction by half.
The time course of cytochrome c reduction by ascorbate was recorded at 550 nm and 570 nm using a 96-well plate reader (Molecular Devices, Sunnyvale, Calif.). For all reactions, cytochrome c was preincubated with cardiolipin in the presence or absence of SS peptides for 1 min. […] Ascorbate (50 μM) was added to initiate the reduction of cytochrome c, and the absorbance was recorded for 5 min. The rate of reduction was calculated based on slope of the change in absorbance intensity of 550 nm over 570 nm.

Substance: 2′,6′-Dmt-D-Arg-Phe-Lys-Ald-NH2 [SS-37]
- increase in quantal yield on addition of CL [1]: 3 fold
- quenching of fluorescence by cytochrome c in the presence of CL ([2]; 10 μM peptide, 2 μM cytochrome c): similarly quenched
- displacement of quenching by bovine serum albumin in the presence of CL ([2]; BSA 500 μg/ml): not displaced

Substance: D-Arg-Tyr-Lys-Phe-NH2 ([dR]YKF-NH2; N-terminus assumed; SMILES N=C(N)NCCC[C@@H](N)C(=O)N[C@@H](Cc1ccc(O)cc1)C(=O)N[C@@H](CCCCN)C(=O)N[C@@H](Cc1ccccc1)C(N)=O) [SPI-231]
- protection against CL-induced disappearance of negative Cotton effect [3]: Protect the Heme Environment of Cytochrome c from the Acyl Chain of CL
- CL inhibition of cytochrome c reduction [4]: prevented CL inhibition of cytochrome c reduction
